Test results reported in patent US20050124594A1, “Method of treatment” (priority 1998, published 2005).

Assays:
[1] = tested on: choroidal neovascularisation (CNV); experiment: Case report: prophylactic triamcinolone to the orbital floor at cataract surgery in a high risk eye; assay type: in vivo, human
Excerpt: A patient in whom prophylactic treatment was used was a person. There was marked macula degeneration in both eyes. They underwent cataract surgery late in July 1995 and developed neovascularisation of the right macula within three weeks. They also had cataract in the left eye but surgery was deferred for fear of developing the same complication. In the left macula there were greater than 5 drusen, some of them larger than 500 μm, and coarse pigment clumping, all high risk features. The cataract in the left eye continued to advance. By August 1997 it was very dense, reducing the visual acuity to 6/24. In spite of the high risk of neovascularisation, they underwent surgery in October 1997. As a prophylactic measure to reduce the risk of subsequent CNV, they received 40 mg of triamcinolone to the orbital floor beneath the eye at the time of surgery. The visual acuity improved to 6/12. They progressed well until June 1998 when they developed left CNV. By this time the effect of the triamcinolone had worn off.

[2] = tested on: choroidal neovascularisation in age-related macular degeneration; settings: introduced into the vitreous; cited from earlier work
[3] = tested on: choroidal neovascularisation (CNV); experiment: Illustrative case: intravitreal steroid treatment for the prevention of neovascularisation in a patient at high risk; assay type: in vivo, human
Method: This case illustrates how intravitreal steroid treatment might be used to prevent CNV in a high risk eye.
A patient presents with recent loss of vision in their right eye. Retinal haemorrhages and exudation are seen in the right macula. […] This is treated on its merits, but the patient is already legally blind (visual acuity less than 6/60) and likely to remain so.
The patient is otherwise healthy and looks as if they might well live another ten or twenty years.
It is explained to the patient that it has been well shown that the risk of developing neovascularisation in their left eye is roughly 90% over the next five years. Should this occur, the chance of saving reading and driving vision with conventional treatments would be less than 25%. The patient is informed that, since the formation of new blood vessels appears in this disease to be linked to chronic, low grade inflammation inside the eye, we believe that an injection of steroid into the eye may reduce the risk of developing neovascularisation in their left eye. […] Serious side effects of the injection are rare. The patient returns in one week, having considered their options, and elects to receive the treatment.
The patient's left eye is anaesthetised and sterilised with topical medications. An injection into the vitreous of 4 mg of triamcinolone (0.1 mL of a 40 mg/mL solution) is performed. The patient is reviewed at 1 and 6 weeks after the injection, then at 3, 6 and 12 months. […] A second injection of triamcinolone is instilled, with the patients consent, and they are reviewed with the same frequency as after the first injection. Two years after the first injection the patient's visual acuity remains 6/9. Further treatments are deferred and the patient is reviewed every 6 months.

[4] = Clinical observations of side effects of intravitreal triamcinolone; assay type: in vivo, human
Excerpt: Intravitreal triamcinolone presents a manageable side effect profile. Of the several hundred patients treated through the Sydney Eye Hospital over the last three years, no case of endophthalmitis, retinal detachment or vitreous haemorrhage has been reported. The commonest side effect is a modest elevation of the intraocular pressure of around 5 mmHg. This has been controlled with glaucoma medication where necessary, although if the optic nerve is not compromised and the pressure is less than 25 mmHg it is often reasonable to observe without treatment. The pressure invariably returns to normal after the drug wears off, which is usually after approximately 6 months.

[5] = 12 months after intravitreal injection of 4 mg

For “9-fluoro-11,21-dihydroxy-16,17-[1-(methylethylidine)bis (oxy)]pregna-1,4-diene-3,20-dione [triamcinolone]”, the “formation of CNV after surgery” value ([1]; 40 mg to the orbital floor October 1997, left CNV developed June 1998) is listed as “delayed the formation of CNV after surgery”, the “visual acuity after cataract surgery” value ([1]; person, left eye, 40 mg to the orbital floor at surgery, acuity 6/24 before surgery) is listed as 6/12 and the exudation [2] is listed as “control and resorbtion of exudation”. The “resident immune cell activity” value [2] was “modulates the resident immune cell activity”, the visual acuity [2] was “improved visual acuity” and the “complications of the procedure” value [3, 5] was “no complications of the procedure have ensued”. The evidence of neovascularisation [3, 5] was “without evidence clinically or angiographically of neovascularisation”, the visual acuity ([3]; 12 months after intravitreal injection of 4 mg, baseline 6/9) was 6/9 and the visual acuity ([3]; two years after the first injection, second injection at 12 months) was 6/9. The “cataract in the treated eye” value ([4]; follow-up to 18 months) was “this has not been a problem”, the “elevation of the intraocular pressure (commonest side effect)” value ([4]; intravitreal) was “around 5 mmHg” and the “endophthalmitis, retinal detachment or vitreous haemorrhage” value ([4]; several hundred patients treated intravitreally over three years) was “no case”.
